# ChEMBL document CHEMBL3885881, “DrugMatrix”
# Species: Rattus norvegicus
# Assay: DrugMatrix - Regimen: Daily Repeat
# Type: toxicity, organism-based, Sprague-Dawley
# Set-up: regimen Daily Repeat, gender Male, age 6-8 weeks
# Settings: in vivo, po, route oral GAVAGE, vehicle .5 % CMC; for BASOPHIL / EOSINOPHIL / ERYTHROCYTE COUNT / HEMATOCRIT / HEMOGLOBIN / LEUKOCYTE COUNT / LYMPHOCYTE / MEAN CORPUSCULAR HEMOGLOBIN / MEAN CORPUSCULAR HEMOGLOBIN CONCENTRATION / MEAN CORPUSCULAR VOLUME / MONOCYTE / NEUTROPHIL / PLATELET COUNT: tissue Blood; for ALANINE AMINOTRANSFERASE / ALBUMIN / ALKALINE PHOSPHATASE / ASPARTATE AMINOTRANSFERASE / BLOOD UREA NITROGEN / CHLORIDE / CHOLESTEROL / CREATINE PHOSPHOKINASE / CREATININE / GLUCOSE / PHOSPHORUS / POTASSIUM / SODIUM / TOTAL BILIRUBIN / TOTAL PROTEIN: tissue Plasma
# [1] = 0 mg/kg, 72 h, dose level Control, time 3 day
# [2] = 0 mg/kg, 120 h, dose level Control, time 5 day
# [3] = 750 mg/kg, 72 h, dose level Low, time 3 day
# [4] = 750 mg/kg, 120 h, dose level Low, time 5 day
# [5] = 2000 mg/kg, 72 h, dose level High, time 3 day
# [6] = 2000 mg/kg, 120 h, dose level High, time 5 day
smiles,measurement,setting,value
NCC(=O)O [GLYCINE],BASOPHIL,[1],0%
same,EOSINOPHIL,[1],0%
same,ERYTHROCYTE COUNT,[1],6.34 x10E6/uL
same,HEMATOCRIT,[1],37.62%
same,HEMOGLOBIN,[1],14.82 G/DL
same,LEUKOCYTE COUNT,[1],11.18 x10E3/uL
same,LYMPHOCYTE,[1],87.5%
same,MEAN CORPUSCULAR HEMOGLOBIN,[1],23.48 pg
same,MEAN CORPUSCULAR HEMOGLOBIN CONCENTRATION,[1],39.5 G/DL
same,MEAN CORPUSCULAR VOLUME,[1],59.45 fL
same,MONOCYTE,[1],1.67%
same,NEUTROPHIL,[1],10.83%
same,PLATELET COUNT,[1],1074.83 x10E3/uL
same,ALANINE AMINOTRANSFERASE,[1],36.5 u/L
same,ALBUMIN,[1],3.9 G/DL
same,ALKALINE PHOSPHATASE,[1],370.17 u/L
same,ASPARTATE AMINOTRANSFERASE,[1],63.17 u/L
same,BLOOD UREA NITROGEN,[1],16.83 mg/dL
same,CHLORIDE,[1],99.33 MEQ/L
same,CHOLESTEROL,[1],64.33 mg/dL
same,CREATINE PHOSPHOKINASE,[1],127 u/L
same,CREATININE,[1],0.55 mg/dL
same,GLUCOSE,[1],173.5 mg/dL
same,PHOSPHORUS,[1],10.08 mg/dL
same,POTASSIUM,[1],6.23 MEQ/L
same,SODIUM,[1],143.5 MEQ/L
same,TOTAL BILIRUBIN,[1],0.52 mg/dL
same,TOTAL PROTEIN,[1],6.35 G/DL
same,BASOPHIL,[2],0%
same,EOSINOPHIL,[2],0.17%
same,ERYTHROCYTE COUNT,[2],6.12 x10E6/uL
same,HEMATOCRIT,[2],37.08%
same,HEMOGLOBIN,[2],14.82 G/DL
same,LEUKOCYTE COUNT,[2],11.87 x10E3/uL
same,LYMPHOCYTE,[2],83.33%
same,MEAN CORPUSCULAR HEMOGLOBIN,[2],24.25 pg
same,MEAN CORPUSCULAR HEMOGLOBIN CONCENTRATION,[2],39.97 G/DL
same,MEAN CORPUSCULAR VOLUME,[2],60.65 fL
same,MONOCYTE,[2],1.5%
same,NEUTROPHIL,[2],15%
same,PLATELET COUNT,[2],1042.83 x10E3/uL
same,ALANINE AMINOTRANSFERASE,[2],46 u/L
same,ALBUMIN,[2],3.82 G/DL
same,ALKALINE PHOSPHATASE,[2],369.5 u/L
same,ASPARTATE AMINOTRANSFERASE,[2],65 u/L
same,BLOOD UREA NITROGEN,[2],16.33 mg/dL
same,CHLORIDE,[2],100.67 MEQ/L
same,CHOLESTEROL,[2],57.17 mg/dL
same,CREATINE PHOSPHOKINASE,[2],130 u/L
same,CREATININE,[2],0.53 mg/dL
same,GLUCOSE,[2],163.33 mg/dL
same,PHOSPHORUS,[2],9.53 mg/dL
same,POTASSIUM,[2],6.27 MEQ/L
same,SODIUM,[2],144.83 MEQ/L
same,TOTAL BILIRUBIN,[2],0.55 mg/dL
same,TOTAL PROTEIN,[2],6.32 G/DL
same,BASOPHIL,[3],0%
same,EOSINOPHIL,[3],0%
same,ERYTHROCYTE COUNT,[3],6.2 x10E6/uL
same,HEMATOCRIT,[3],37.37%
same,HEMOGLOBIN,[3],14.17 G/DL
same,LEUKOCYTE COUNT,[3],11.6 x10E3/uL
same,LYMPHOCYTE,[3],90%
same,MEAN CORPUSCULAR HEMOGLOBIN,[3],22.83 pg
same,MEAN CORPUSCULAR HEMOGLOBIN CONCENTRATION,[3],37.97 G/DL
same,MEAN CORPUSCULAR VOLUME,[3],60.17 fL
same,MONOCYTE,[3],0%
same,NEUTROPHIL,[3],10%
same,PLATELET COUNT,[3],1191.67 x10E3/uL
same,ALANINE AMINOTRANSFERASE,[3],28 u/L
same,ALBUMIN,[3],3.4 G/DL
same,ALKALINE PHOSPHATASE,[3],270.33 u/L
same,ASPARTATE AMINOTRANSFERASE,[3],46.67 u/L
same,BLOOD UREA NITROGEN,[3],9 mg/dL
same,CHLORIDE,[3],102.33 MEQ/L
same,CHOLESTEROL,[3],55.33 mg/dL
same,CREATINE PHOSPHOKINASE,[3],104.33 u/L
same,CREATININE,[3],0.4 mg/dL
same,GLUCOSE,[3],165 mg/dL
same,PHOSPHORUS,[3],10.73 mg/dL
same,POTASSIUM,[3],6.07 MEQ/L
same,SODIUM,[3],148 MEQ/L
same,TOTAL BILIRUBIN,[3],0.17 mg/dL
same,TOTAL PROTEIN,[3],5.43 G/DL
same,BASOPHIL,[4],0%
same,EOSINOPHIL,[4],0%
same,ERYTHROCYTE COUNT,[4],6.26 x10E6/uL
same,HEMATOCRIT,[4],38.2%
same,HEMOGLOBIN,[4],15 G/DL
same,LEUKOCYTE COUNT,[4],13 x10E3/uL
same,LYMPHOCYTE,[4],89.67%
same,MEAN CORPUSCULAR HEMOGLOBIN,[4],23.97 pg
same,MEAN CORPUSCULAR HEMOGLOBIN CONCENTRATION,[4],39.27 G/DL
same,MEAN CORPUSCULAR VOLUME,[4],61.1 fL
same,MONOCYTE,[4],0.33%
same,NEUTROPHIL,[4],10%
same,PLATELET COUNT,[4],1041.67 x10E3/uL
same,ALANINE AMINOTRANSFERASE,[4],32 u/L
same,ALBUMIN,[4],3.73 G/DL
same,ALKALINE PHOSPHATASE,[4],311.33 u/L
same,ASPARTATE AMINOTRANSFERASE,[4],55.33 u/L
same,BLOOD UREA NITROGEN,[4],12.33 mg/dL
same,CHLORIDE,[4],99.33 MEQ/L
same,CHOLESTEROL,[4],59.67 mg/dL
same,CREATINE PHOSPHOKINASE,[4],148 u/L
same,CREATININE,[4],0.57 mg/dL
same,GLUCOSE,[4],154 mg/dL
same,PHOSPHORUS,[4],11.67 mg/dL
same,POTASSIUM,[4],5.97 MEQ/L
same,SODIUM,[4],144.33 MEQ/L
same,TOTAL BILIRUBIN,[4],0.33 mg/dL
same,TOTAL PROTEIN,[4],6.07 G/DL
same,BASOPHIL,[5],0%
same,EOSINOPHIL,[5],0%
same,ERYTHROCYTE COUNT,[5],6.16 x10E6/uL
same,HEMATOCRIT,[5],36.47%
same,HEMOGLOBIN,[5],14 G/DL
same,LEUKOCYTE COUNT,[5],12.17 x10E3/uL
same,LYMPHOCYTE,[5],89.67%
same,MEAN CORPUSCULAR HEMOGLOBIN,[5],22.77 pg
same,MEAN CORPUSCULAR HEMOGLOBIN CONCENTRATION,[5],38.4 G/DL
same,MEAN CORPUSCULAR VOLUME,[5],59.23 fL
same,MONOCYTE,[5],1.33%
same,NEUTROPHIL,[5],9%
same,PLATELET COUNT,[5],1124.67 x10E3/uL
same,ALANINE AMINOTRANSFERASE,[5],31.33 u/L
same,ALBUMIN,[5],3.53 G/DL
same,ALKALINE PHOSPHATASE,[5],262.33 u/L
same,ASPARTATE AMINOTRANSFERASE,[5],51.67 u/L
same,BLOOD UREA NITROGEN,[5],12 mg/dL
same,CHLORIDE,[5],100.33 MEQ/L
same,CHOLESTEROL,[5],57.33 mg/dL
same,CREATINE PHOSPHOKINASE,[5],113.33 u/L
same,CREATININE,[5],0.37 mg/dL
same,GLUCOSE,[5],157.67 mg/dL
same,PHOSPHORUS,[5],12.17 mg/dL
same,POTASSIUM,[5],6.6 MEQ/L
same,SODIUM,[5],145.67 MEQ/L
same,TOTAL BILIRUBIN,[5],0.2 mg/dL
same,TOTAL PROTEIN,[5],5.57 G/DL
same,BASOPHIL,[6],0%
same,EOSINOPHIL,[6],0.33%
same,ERYTHROCYTE COUNT,[6],6.21 x10E6/uL
same,HEMATOCRIT,[6],36.87%
same,HEMOGLOBIN,[6],14.97 G/DL
same,LEUKOCYTE COUNT,[6],15.13 x10E3/uL
same,LYMPHOCYTE,[6],88.67%
same,MEAN CORPUSCULAR HEMOGLOBIN,[6],24.1 pg
same,MEAN CORPUSCULAR HEMOGLOBIN CONCENTRATION,[6],40.6 G/DL
same,MEAN CORPUSCULAR VOLUME,[6],59.4 fL
same,MONOCYTE,[6],1.33%
same,NEUTROPHIL,[6],9.67%
same,PLATELET COUNT,[6],1238.67 x10E3/uL
same,ALANINE AMINOTRANSFERASE,[6],33.67 u/L
same,ALBUMIN,[6],3.63 G/DL
same,ALKALINE PHOSPHATASE,[6],237 u/L
same,ASPARTATE AMINOTRANSFERASE,[6],55.67 u/L
same,BLOOD UREA NITROGEN,[6],12.33 mg/dL
same,CHLORIDE,[6],100.67 MEQ/L
same,CHOLESTEROL,[6],62 mg/dL
same,CREATINE PHOSPHOKINASE,[6],118.67 u/L
same,CREATININE,[6],0.5 mg/dL
same,GLUCOSE,[6],159.67 mg/dL
same,PHOSPHORUS,[6],11.77 mg/dL
same,POTASSIUM,[6],6.63 MEQ/L
same,SODIUM,[6],146.67 MEQ/L
same,TOTAL BILIRUBIN,[6],0.27 mg/dL
same,TOTAL PROTEIN,[6],5.93 G/DL
